Test results reported in patent US10202604B2, “Methods of using microRNA-141” (Stemirna Therapeutics Co., Ltd., priority 2016, dated 2019).

Legend:
[1] = test system: PPC-1 bulk cells or CD44+ DU145 cells; assay: EdU incorporation flow cytometry; assay type: cell-based, human; conditions: miR-141-overexpressing cells; 30 nM oligos 48 h, 10 μM EdU 2.5 h
Experimental: EdU (5-ethynyl-2′-deoxyuridine) is a nucleoside analog to thymidine and incorporated into DNA during active DNA synthesis. EdU incorporation assays were performed using Click-iT EdU Flow Cytometer Assays kit (C10418, Invitrogen) per manufacturer's instructions. Briefly, PPC-1 bulk cells or CD44^+ DU145 cells transfected with negative control or miR-141 oligos (30 nM) for 48 h were pulsed with 10 μM EdU for 2.5 h and harvested. After fixation and permeabilization, cells were processed for EdU immunostaining and also labeled with Pacific Blue azide (1:200) and finally analyzed on a flow cytometer.

Human CDC42EP3 3'-UTR = assay: 3'-UTR luciferase reporter assay; assay type: cell-based; conditions: Du145 cells; 30 nM miR-141 vs NC oligos
Experimental: (§1) Du145 cells transfected with NC or miR-141 oligos at the two doses and time intervals indicated were used in Western blotting. Indicated below are relative expression levels (normalized to respective GAPDH and compared to NC) of each protein determined by densitometric scanning of the individual bands. […] Bars, mean±SD. *P<0.05; **P<0.01. […] Du145 cells were co-transfected with NC or miR-141 oligos (30 nM) in combination with pcDNA3.1 (control) vector or pcDNA-RAC1 or pcDNA-CDC42 expression vector. After 48 h, cells were harvested for invasion assays. […] Du145 cells were infected with Lenti-141 or control lentivirus (MOI 10, 48 h) and then harvested to measure the Rho GTPase activities. Bars, mean±SD. *P<0.05. […] Du145 cells were transfected with the antisense oligos to NC or miR-141 (anti-141; 30 nM) and then used in invasion assays (FIG. 5E). In FIG. 5F and FIG. 5G Du145 cells were transfected with 10 nM of scramble siRNA control (siCon) or siRNAs targeting RAC1 (FIG. 5F) or CDC42 (FIG. 5G), either alone or in combination of anti-141 (30 nM). 48 h later, cells were harvested for invasion assays. Bars, mean±SD. *P<0.05; **P<0.01.
(§2) The human CD44 3′-UTR was amplified from Du145 genomic DNA using primers 5′-[…]-3′ (SEQ ID NO: 2) and 5′-[…]-3′ (SEQ ID NO: 3), as previously described (13). For site-specific mutagenesis, the region in the CD44 3′-UTR (SEQ ID NO: 4, shown with uracils) complementary to the seed sequence of miR-141 (SEQ ID NO: 1) were mutated (TAGTGTT to GGCGCGG; see FIG. 3D). The human EZH2 3′-UTR was amplified from Du145 genomic DNA using primers 5′-GAGCTC-CATCTGCTACCTCCTCCCC-3′ (SEQ ID NO: 6) and 5′-[…]-3′ (SEQ ID NO: 7). For site-specific mutagenesis, the region complementary to the seed sequence of miR-141 was mutated (AAAGTGTT to TATCACAA; see FIG. 6A). The PCR fragments were cloned into pGEM-T vector (Promega, Madison, Wis.) and sequence confirmed. Cells were plated in 24-well plates and co-transfected, using Lipofectamine 2000, with 1 μg firefly luciferase reporter plasmid and 5 ng Renilla plasmid (phRL-CMV) into which the 3′-UTR fragments were cloned. The luciferase activities were detected using Duo-luciferase reporter assay system (Promega). Human RAC1, CDC42, CDC42EP3, and ARPC5 3′-UTR luciferase reporter constructs were obtained from SwitchGear Genomics (Menlo Park, Calif.) and luciferase activities were measured per the manufacturer's instructions using LightSwitch luciferase assay kit.

Human CDC42 3'-UTR = assay: 3'-UTR luciferase reporter assay; assay type: cell-based; conditions: Du145 cells; 30 nM miR-141 vs NC oligos
Experimental: as §1, §2

Human ARPC5 3'-UTR = assay: 3'-UTR luciferase reporter assay; assay type: cell-based; conditions: Du145 cells; 30 nM miR-141 vs NC oligos
Experimental: as §1, §2

Human RAC1 3'-UTR = assay: 3'-UTR luciferase reporter assay; assay type: cell-based; conditions: Du145 cells; 30 nM miR-141 vs NC oligos
Experimental: as §1, §2

CD44+ Du145 cells = assay: Clonal and sphere formation assays; assay type: cell-based, human; conditions: miR-141 vs NC oligos, 30 nM, 48 h transfection
Experimental: Average % of CD44^+ cells (as determined by flow analysis; n=3-5) is indicated for each cell type (UD, undetectable). […] Purified CD44^+ Du145 cells were transfected with NC or miR-141 oligos (30 nM, 48 h) and then plated for clonal (1D & 1E) and sphere (1F) assays. Bars represent mean±SD. *, P<0.05; **, P<0.01. […] Shown are tumor images, cell numbers injected (100,000 cells per injection for all models), site of injection (s.c, subcutaneously) and days (d) when tumors were harvested. Tumor weight and incidences with corresponding P values are also indicated. ns, not significant. […] For 1st generation (1°) sphere assays, 1,000 cells per well were plated in triplicate for each group in 12-well plate and results scored in 11 days. For 2nd generation (2°), the 1° spheres were harvested, digested with Collagenase and Trypsin into single cells, 1,000 cells/well were plated, and results scored in 10 days. Quantification of the colonies was plotted (1 L; **P<0.01). […]
For clonal assays, cultured prostate cancer cells or human prostate cancer cells freshly purified from patient primary tumors were plated at a clonal density (i.e., 100 cells/well) in a 6-well plate. The number of holoclones (33) was counted several days later. […] Floating spheres that arose in 1-2 weeks were counted. […]

## miR-141: miR-141 mirVana mimics (Life Technologies); microRNA-141 oligonucleotide may have SEQ ID NO: 1; in some experiments over-expressed by lentiviral vectors (UAACACUGUCUGGUAAAGAUGG; listed as RNA, further chemistry not given here) [miR-141 mirVana mimics (Life Technologies); in some experiments over-expressed by lentiviral vectors]
[1]
  EdU incorporation: reduced
Human CDC42EP3 3'-UTR
  luciferase activity of CDC42EP3 3'-UTR construct: inhibited
Human CDC42 3'-UTR
  luciferase activity of CDC42 3'-UTR construct: inhibited
Human ARPC5 3'-UTR
  luciferase activity of ARPC5 3'-UTR construct: inhibited
Human RAC1 3'-UTR
  luciferase activity of RAC1 3'-UTR construct: inhibited
CD44+ Du145 cells
  clonogenic capacity: inhibited
  sphere-forming capacity: inhibited
